In patent US4253998A, “Peptides related to somatostatin” (American Home Products Corporation, priority 1979, dated 1981):
Structures can show the parent of a compound that is named as a salt. Bridge positions count the residues as written; N and C are the ends. Square brackets hold non-standard residues; d marks the D form. Peptide text beside a SMILES is read from it.

Legend:
Type in all cases: in vivo, rat
growth hormone (GH) [1] = assay: Inhibition of growth hormone secretion in arginine-treated, pentobarbital-anesthetized rats (radioimmunoassay)
Method: (§1) Male albino rats are divided into two groups (e.g. nine rats per group). Each animal is administered sodium pentobarbital (Nembutal), I. P., at a dose of 50 mg/kg. Fifteen minutes later, one group received a S. C. injection of the test compound in saline (typically 5 to 200 μg/kg.), and the other group (control) receives saline alone. Ten minutes later, each animal is given a 0.5 ml. injection of arginine (300 mg/ml., pH 7.2) into the heart. Five minutes after receipt of the arginine, the animals are decapitated and blood is collected into Trasylol-EDTA. An appropriate aliquot of each sample is assayed for GH, glucagon, and insulin by radioimmunossay. GH is determined by the method of Sinha et al., Endocrinol., 91, 784 (1972); glucagon is determined by the method of Caloona and Unger, "Methods of Hormone Radioimmunoassay," Jaffe et al., Ed., Academic Press, New York, 1974, pages 317-330; and insulin is determined by the method of Hales and Randle, Biochem. J., 88, 137 (1963). The blood concentrations of growth hormone, glucagon, and insulin for the animals given the test compound are compared by standard statistical methods to the blood concentrations for the control group.

insulin = assay: Inhibition of insulin secretion in arginine-treated, pentobarbital-anesthetized rats (radioimmunoassay)
Method: as §1

glucagon = assay: Inhibition of glucagon secretion in arginine-treated, pentobarbital-anesthetized rats (radioimmunoassay)
Method: as §1

growth hormone (GH) [2] = assay: Prolonged inhibition of growth hormone in rats (plasma GH 2 to 6 hours after S.C. injection); details: for Plasma GH: 1000 μg/kg S.C.
Method: Albino male rats are arranged in two groups (nine rats per group). One group received a subcutaneous (S. C.) injection of the test compound (typically 1 mg/kg.) in saline, and the other group received a S. C. injection of saline alone (control). […] P. injection of sodium pentobarbital, 50 mg/kg. At the end of the experiment, blood samples are taken from each animal by cardiac puncture, and each sample is mixed with Trasylol-EDTA. An aliquot of each sample is assayed for GH by radioimmunoassay. The blood growth hormone concentrations for the animals receiving the test compound are compared by standard statistical methods to the growth hormone concentrations for the control animals. Compounds considered long-acting product a significant decrease in blood growth hormone concentration at a dose of 1 mg/kg. at least two hours after injection.

## C[C@@H](O)[C@@H]1NC(=O)[C@H](CCCCN)NC(=O)[C@@H](Cc2c[nH]c3ccccc23)NC(=O)[C@H](Cc2ccccc2)NC(=O)[C@H](Cc2ccccc2)NC(=O)[C@H](Cc2c[nH]cn2)NC(=O)[C@H](Cc2c[nH]cn2)NC(=O)[C@@H](N)CSSC[C@@H](C(=O)O)NC(=O)[C@@H](CO)NC(=O)[C@H]([C@@H](C)O)NC(=O)[C@H](Cc2ccccc2)NC1=O [Example 6, L-Cysteinyl-L-Histidyl-L-Histidyl-L-Phenylalanyl-L-Phenylalanyl-D-Tryptophyl-L-Lysyl-L-Threonyl-L-Phenylalanyl-L-Threonyl-D-Seryl-L-Cysteine Cyclic (1→12) Disulfide Triacetate Salt] (H-CHHFF[dW]KTFT[dS]C-OH; disulfide 1-12)
Growth hormone (GH) [1]; Exp. F, 100 μg/kg S.C., control 363 ± 74, p < 0.01
  GH: 83 ± 16 ng/mL
insulin; Exp. F, 100 μg/kg S.C., control 75 ± 8, not significant
  Insulin: 60 ± 10 μU/ml
glucagon; Exp. F, 100 μg/kg S.C., control 162 ± 29, p < 0.01
  Glucagon: 55 ± 12 pg/mL

## C[C@@H](O)[C@@H]1NC(=O)[C@H](CCCCN)NC(=O)[C@@H](Cc2c[nH]c3ccccc23)NC(=O)[C@H](Cc2ccccc2)NC(=O)[C@H](Cc2ccccc2)NC(=O)[C@H](CCC(=O)O)NC(=O)[C@H](CCCNC(=N)N)NC(=O)[C@@H](N)CSSC[C@@H](C(=O)O)NC(=O)[C@@H](Cc2ccc(O)cc2)NC(=O)[C@H]([C@@H](C)O)NC(=O)[C@H](Cc2ccccc2)NC1=O [Example 4, L-Cysteinyl-L-Arginyl-L-α-Glutamyl-L-Phenylalanyl-L-Phenylalanyl-D-Tryptophyl-L-Lysyl-L-Threonyl-L-Phenylalanyl-L-Threonyl-D-Tyrosyl-L-Cysteine Cyclic (1→12) Disulfide Triacetate Salt] (H-CREFF[dW]KTFT[dY]C-OH; disulfide 1-12)
Growth hormone (GH) [1]; Exp. E, 200 μg/kg S.C., control 354 ± 57, p < 0.01
  GH: 81 ± 6 ng/mL
insulin; Exp. E, 200 μg/kg S.C., control 336 ± 31, p < 0.01
  Insulin: 128 ± 33 μU/ml
glucagon; Exp. E, 200 μg/kg S.C., control 62 ± 10, not significant
  Glucagon: 41 ± 14 pg/mL

## C[C@@H](O)[C@@H]1NC(=O)[C@H](CCCCN)NC(=O)[C@@H](Cc2c[nH]c3ccccc23)NC(=O)[C@H](Cc2ccccc2)NC(=O)[C@H](Cc2ccccc2)NC(=O)[C@H](Cc2c[nH]cn2)NC(=O)[C@H](CCCNC(=N)N)NC(=O)[C@@H](N)CSSC[C@@H](C(=O)O)NC(=O)[C@@H](Cc2ccc(O)cc2)NC(=O)[C@H]([C@@H](C)O)NC(=O)[C@H](Cc2ccccc2)NC1=O [Example 2, L-Cysteinyl-L-Arginyl-L-Histidyl-L-Phenylalanyl-L-Phenylalanyl-D-Tryptophyl-L-Lysyl-L-Threonyl-L-Phenylalanyl-L-Threonyl-D-Tyrosyl-L-Cysteine Cyclic (1→12) Disulfide] (H-CRHFF[dW]KTFT[dY]C-OH; disulfide 1-12)
Growth hormone (GH) [1]; Exp. A, 100 μg/kg S.C., blood 15 min after dose, 5 min after arginine, control 508 ± 13, p < 0.05
  GH: 181 ± 47 ng/mL
Growth hormone (GH) [1]; Exp. B, 400 μg/kg S.C., control 234 ± 36, p < 0.01
  GH: 67 ± 13 ng/mL
insulin; Exp. A, 100 μg/kg S.C., control 298 ± 33, p < 0.05
  Insulin: 154 ± 39 μU/ml
insulin; Exp. B, 400 μg/kg S.C., control 187 ± 21, p < 0.01
  Insulin: 70 ± 23 μU/ml
glucagon; Exp. A, 100 μg/kg S.C., control 61 ± 8, p < 0.01
  Glucagon: 22 ± 7 pg/mL
glucagon; Exp. B, 400 μg/kg S.C., control 41 ± 5, p < 0.01
  Glucagon: 9 ± 1 pg/mL
Growth hormone (GH) [2]; Exp. C, 2 hours, control 213 ± 14, p < 0.001
  Plasma GH: 89 ± 5 ng/mL
Growth hormone (GH) [2]; Exp. C, 4 hours, control 182 ± 12, p < 0.001
  Plasma GH: 101 ± 13 ng/mL
Growth hormone (GH) [2]; Exp. D, 5 hours, control 337 ± 36, p < 0.05
  Plasma GH: 230 ± 31 ng/mL
Growth hormone (GH) [2]; Exp. D, 6 hours, control 234 ± 24, not significant
  Plasma GH: 172 ± 34 ng/mL
Growth hormone (GH) [2]; rat, in vivo
  Prolonged inhibition of growth hormone / period of action (in words): shows prolonged inhibition of growth hormone
